Measurements as given in US8772499B2, “TRPV3 modulators” (AbbVie Inc., priority 2011, dated 2014).
Like-named read-outs stand apart in the source and are kept apart here.

Columns and labels:
[1] = In vitro rat microsomal stability assay; format: in vitro ADME, rat (Sprague-Dawley); settings: Sprague-Dawley, rat, microsomes, 0.5 h, 0.5 μM, pH 7.4
Procedure: (§1) Test compounds were evaluated for metabolic stability in an in vitro rat microsomal stability assay using rat liver microsomes (Sprague-Dawley, from BD Biosciences) and/or an in vitro human microsomal stability assay using human liver microsomes (Xenotech). […] Incubations were carried out at 37° C. with a final incubation volume of 135 μL. […] A 1.5 μL aliquot of reduced nicotine adenine disphosphonucleotide (NADPH) (Chem-Impex Int'L Inc., Lot 12532024) was also added to the time-zero plates.

human TRPV3 = biological target: T1, human TRPV3 (Homo sapiens, UniProt Q8NET8); test: In vitro antagonism of recombinant human TRPV3 activation (FLIPR Tetra calcium assay); format: cell-based; settings: HEK293 cells stably expressing human TRPV3, agonist 2-APB at 80 μM
T1 construct: expressed in transfected cells
T1 sequence (Q8NET8 1-790): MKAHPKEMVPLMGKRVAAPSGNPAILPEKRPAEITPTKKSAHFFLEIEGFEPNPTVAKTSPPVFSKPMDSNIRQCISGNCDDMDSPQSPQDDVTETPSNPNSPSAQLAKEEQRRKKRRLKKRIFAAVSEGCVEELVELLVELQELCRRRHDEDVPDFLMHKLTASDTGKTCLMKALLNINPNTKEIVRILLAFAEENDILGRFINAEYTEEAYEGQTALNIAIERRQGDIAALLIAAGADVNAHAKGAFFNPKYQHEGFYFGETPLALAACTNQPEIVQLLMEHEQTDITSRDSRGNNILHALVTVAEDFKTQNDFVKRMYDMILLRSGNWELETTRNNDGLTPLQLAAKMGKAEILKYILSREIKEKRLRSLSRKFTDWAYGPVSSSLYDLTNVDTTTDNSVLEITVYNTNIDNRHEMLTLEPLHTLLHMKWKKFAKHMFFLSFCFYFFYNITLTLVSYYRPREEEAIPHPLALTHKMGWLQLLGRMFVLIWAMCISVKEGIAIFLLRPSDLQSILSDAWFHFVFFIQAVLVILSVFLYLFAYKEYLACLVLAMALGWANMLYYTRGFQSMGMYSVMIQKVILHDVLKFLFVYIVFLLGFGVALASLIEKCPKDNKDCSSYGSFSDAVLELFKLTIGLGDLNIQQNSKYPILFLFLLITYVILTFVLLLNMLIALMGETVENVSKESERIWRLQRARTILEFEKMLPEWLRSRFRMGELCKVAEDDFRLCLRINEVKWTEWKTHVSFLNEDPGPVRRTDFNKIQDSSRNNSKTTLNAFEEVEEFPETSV
Procedure: Test compounds were evaluated for ability to antagonize the activation of recombinant human TRPV3 using FLIPR® Tetra cellular screening. Specifically, on the day prior to the experiment recombinant HEK293 cells that stably express human TRPV3 were removed from tissue culture flasks and plated in growth medium at 20,000 cells/well into Poly-d-lysine coated black/clear 384-well Plate (Corning, 3845) using a Multidrop® dispenser (ThermoScientific, Waltham, Mass.). Prior to the start of the assay, the medium was removed by aspiration, and cells were loaded with 30 μL no-wash FLIPR® Calcium-4 dye (λEX=470-495 nm, λEM=515-575 nm; Molecular Devices, Sunnyvale, Calif.). The cells were then incubated for 90-120 minutes in the dark prior to addition of the test compound.
A double-addition protocol was used. The test compound (i.e., the TRPV3 antagonist) was added at the 10 second time point, followed by the addition of a TRPV3 agonist three minutes later. Each test compound evaluated was first dissolved in DMSO to prepare a 10 mM stock solution. A solution (5×) of the test compound was then prepared in DPBS (Dulbecco's Phosphate Buffered Saline) and 10 μl, of that solution was added to the cells at a delivery rate of 40 μL/sec. The TRPV3 agonist used to activate human TRPV3 expressed by the […] was 2-aminoethoxy-diphenyl borate (2-APB; Tocris Cookson, Ellisville, Mo.) at 80 μM. Final assay volume was 50 μl, Total length of an experimental run was 10 minutes.
Changes in fluorescence were measured over time using the FLIPR® instrument. The intensity of the fluorescence was captured and digitally transferred to an interfaced computer. The maximum response minus minimum response was calculated and expressed as the percentage of the maximum 2-APB response in the absence of antagonist. The concentration of 2-APB corresponds to its EC80.
Table 1 reports the IC50 values measured for the test compounds as human TRPV3 antagonists. […] Actual measured values are shown parenthetically after the reported range. In most cases, the values reported are average values from at least two runs (i.e., n≧2).

[2] = In vitro human microsomal stability assay; format: in vitro ADME; settings: human, microsomes, 0.5 h, 0.5 μM, pH 7.4
Procedure: as §1

[3] = actual measured value shown parenthetically, in most cases average of at least two runs, read-out: IC50
[4] = reported range, read-out: IC50 (range class)

SMILES | RAT MICROSOMAL STABILITY (% REMAINING AFTER 30 MINUTES) [1] [%] | IC50 (human TRPV3; [3]) [nM] | HUMAN MICROSOMAL STABILITY (% REMAINING AFTER 30 MINUTES) [2] [%] | IC50 (human TRPV3; [4]) [nM]
OC(c1ccccn1)C1(c2ccc(C(F)(F)F)cc2)CCCO1 (single isomer, unassigned) [Example 88, (anti)-pyridin-2-yl{2-[4-(trifluoromethyl)phenyl]tetrahydrofuran-2-yl}methanol] | 7.0 | 370 | 38 | 
OC(c1ccccn1)C1(c2ccc(C(F)(F)F)cc2)CCCO1 (single isomer, unassigned) [Example 89, (syn)-pyridin-2-yl{2-[4-(trifluoromethyl)phenyl]tetrahydrofuran-2-yl}methanol] | 4.3 | 2000 | 70 | 
OC(c1ccccn1)C1(c2cccc(OC(F)(F)F)c2)CCCO1 (single isomer, unassigned) [Example 92, (anti)-pyridin-2-yl{2-[3-(trifluoromethoxy)phenyl]tetrahydrofuran-2-yl}methanol] | 0.23 | 100 | 2.7 | 
OC(c1ccccn1)C1(c2cccc(OC(F)(F)F)c2)CCCO1 (single isomer, unassigned) [Example 93, (syn)-pyridin-2-yl{2-[3-(trifluoromethoxy)phenyl]tetrahydrofuran-2-yl}methanol] | 0.33 | 590 | 12 | 
OC(c1ccccn1)C1(c2ccc(OC(F)(F)F)cc2)CCCO1 (single isomer, unassigned) [Example 94, (anti)-pyridin-2-yl{2-[4-(trifluoromethoxy)phenyl]tetrahydrofuran-2-yl}methanol] | 3.8 | 360 | 55 | 
OC(c1ccccn1)C1(c2ccc(OC(F)(F)F)cc2)CCCO1 (single isomer, unassigned) [Example 95, (syn)-pyridin-2-yl{2-[4-(trifluoromethoxy)phenyl]tetrahydrofuran-2-yl}methanol] | 0.61 | 1850 | 57 | 
OC(c1ccccn1)C1(c2ccccc2OC(F)(F)F)CCCO1 (single isomer, unassigned) [Example 96, (anti)-pyridin-2-yl{2-[2-(trifluoromethoxy)phenyl]tetrahydrofuran-2-yl}-methanol] | 0.15 | 1220 | 0.68 | 
OC(c1ccccn1)C1(c2ccccc2OC(F)(F)F)CCCO1 (single isomer, unassigned) [Example 97, (syn)-pyridin-2-yl{2-[2-(trifluoromethoxy)phenyl]tetrahydrofuran-2-yl}-methanol] | 0.16 | 300 | 6.4 | 
OC(c1ccccn1)C1(c2ccc(Cl)c(Cl)c2)CCCO1 (single isomer, unassigned) [Example 98] | 0.020 | 110 | 7.6 | 
OC(c1ccccn1)C1(c2ccc(Cl)c(Cl)c2)CCCO1 (single isomer, unassigned) [Example 99, (syn)-[2-(3,4-dichlorophenyl)tetrahydrofuran-2-yl](pyridin-2-yl)methanol] | 0.17 | 1240 | 30 | 
OC(c1ccccn1)C1(c2cccc(F)c2)CCCO1 (single isomer, unassigned) [Example 100, (anti)-[2-(3-fluorophenyl)tetrahydrofuran-2-yl](pyridin-2-yl)methanol] | 2.9 | 830 | 26 | 
OC(c1ccccn1)C1(c2cccc(F)c2)CCCO1 (single isomer, unassigned) [Example 101, (syn)-[2-(3-fluorophenyl)tetrahydrofuran-2-yl](pyridin-2-yl)methanol] | 0.17 | > 20000 | 40 | > 20000

Other lines, results leading:

RAT MICROSOMAL STABILITY (% REMAINING AFTER 30 MINUTES) [1] [%] | IC50 (human TRPV3; [3]) [nM] | HUMAN MICROSOMAL STABILITY (% REMAINING AFTER 30 MINUTES) [2] [%] | IC50 (human TRPV3; [4]) [nM] | SMILES
0.42 | 280 | 15 |  | OC(c1ccccn1)C1(c2cccc(Cl)c2)CCCO1 (single isomer, unassigned) [Example 104, (anti)-[2-(3-chlorophenyl)tetrahydrofuran-2-yl](pyridin-2-yl)methanol]
0.040 | 7570 | 42 |  | OC(c1ccccn1)C1(c2cccc(Cl)c2)CCCO1 (single isomer, unassigned) [Example 105, (syn)-[2-(3-chlorophenyl)tetrahydrofuran-2-yl](pyridin-2-yl)methanol]
1.6 | 210 | 3.9 |  | OC(c1ccccn1)C1(c2cccc(C(F)(F)F)c2)CCCO1 (single isomer, unassigned) [Example 106, (anti)-pyridin-2-yl{2-[3-(trifluoromethyl)phenyl]tetrahydrofuran-2-yl}-methanol]
0.23 | 2930 | 31 |  | OC(c1ccccn1)C1(c2cccc(C(F)(F)F)c2)CCCO1 (single isomer, unassigned) [Example 107, (syn)-pyridin-2-yl{2-[3-(trifluoromethyl)phenyl]tetrahydrofuran-2-yl}-methanol]
4.9 | 610 | 13 |  | OC(c1ccccn1)C1(c2ccc(F)c(F)c2)CCCO1 (single isomer, unassigned) [Example 108, (anti)-[2-(3,4-difluorophenyl)tetrahydrofuran-2-yl](pyridin-2-yl)methanol]
0.74 | 5810 | 45 |  | OC(c1ccccn1)C1(c2ccc(F)c(F)c2)CCCO1 (single isomer, unassigned) [Example 109, (syn)-[2-(3,4-difluorophenyl)tetrahydrofuran-2-yl](pyridin-2-yl)methanol]
50 | 820 | >85 | 1100 to 5000 | OC1CC(c2ccc(OC(F)(F)F)cc2)(C(O)c2ccccn2)C1 (single isomer, unassigned) [Example 131]
72 | 9330 | 81 |  | OC1CC(c2ccc(OC(F)(F)F)cc2)(C(O)c2ccccn2)C1 (single isomer, unassigned) [Example 132]
